Measured values from patent US20220087996A1, “Histone acetylase p300 inhibitor and use thereof” (HINOVA PHARMACEUTICALS INC., priority 2018, published 2022).

system: CWR22RV1 cells; assay: Inhibition of proliferation of CWR22RV1 cells (CCK-8); assay type: cell-based, human; settings: 6 days culture, read-out: IC50 against CWR22RV1 cells
Procedure: 1) CWR22RV1 cells were subcultured in cell culture medium, and the cells in good growth condition were seeded in a 96-well plate, 80 μL for each well, and the cell number in each well was 1500. The plate was incubated overnight in a 37° C., 5% CO2 cell incubator. 2) The drug was prepared as 30 mM stock solution with dimethyl sulfoxide (DMSO). Prior to use, the stock solution was diluted 3 times with DMSO, and then further diluted as 3-fold gradient to obtain 9 concentration gradients. Then, each concentration of compound was diluted 200 times with the culture solution (ensuring that the DMSO concentration in the culture system was 0.1%), and two replicate wells were set for each concentration. 20 μL of diluted compound solution was added to the cell culture well (with final concentrations of 10 μM, 3.3 μM. 1.1 μM . . . ), and the plate was gently shaken to mix. In addition, 3 negative control wells containing only cells and 3 blank control wells containing only culture medium were included (6 wells were each added 20 μL DMSO diluted 200 times with culture medium). 2. Result detection: (1) After culturing for 6 days, 10 μL CCK-8 was added to each well, and the plate was continually cultured in a 37° C., 5% CO2 cell incubator for 2.5 h. (2) The absorbance (OD value) was detected at 450 nm using a multifunctional microplate reader. (3) The data were analyzed by Dose-response-inhibition equation in the software GraphPad Prism6, and the IC50 value was obtained.

| SMILES | IC50 [µM] |
| --- | --- |
| CNC(=O)Nc1ccc2c(c1)CC[C@@]21OC(=O)N(CC(=O)N2CCCC2c2ccccc2C)C1=O (stereo partly shown) [Example 324] | > 2 |
| CNC(=O)Nc1ccc2c(c1)CC[C@@]21OC(=O)N(CC(=O)N2CCCC2c2ccccc2C)C1=O (stereo partly drawn) [Example 11, 1-((1R)-2′,4′-dioxo-3′-(2-oxo-2-(2-(o-tolyl)pyrrolidin-1-yl)ethyl)-2,3-dihydrospiro[indene-1,5′-oxazolidine]-5-yl)-3-methylurea] | 0.5 to 2 |

same assay, conditions: Homo sapiens, CWR22Rv1, 144 h, 6 days culture, read-out: IC50 against CWR22RV1 cells

| SMILES | IC50 [µM] |
| --- | --- |
| CNC(=O)Nc1ccc2c(c1)CCC21OC(=O)N(CC(=O)N2[C@@H](CO)CC[C@H]2c2ccc(F)cc2)C1=O (stereo partly drawn) [Example 361, 1-(3′-(2-((2S,5R)-2-(4-fluorophenyl)-5-(hydroxymethyl)pyrrolidin-1-yl)-2-oxoethyl)-2′,4′-dioxo-2,3-dihydrospiro[indene-1,5′-oxazolidine]-5-yl)-3-methylurea] | 0.5 to 2 |
| CNC(=O)Nc1ccc2c(c1)CC[C@@]21OC(=O)N(CC(=O)N2CCC[C@H]2c2ccc(F)cc2C)C1=O [Example 8, 1-((R)-3′-(2-((S)-2-(4-fluoro-2-methylphenyl)pyrrolidin-1-yl)-2-oxoethyl)-2′,4′-dioxo-2,3-dihydrospiro[indene-1,5′-oxazolidine]-5-yl)-3-methylurea] | 0.5 to 2 |
| CNC(=O)Nc1ccc2c(c1)CC[C@@]21OC(=O)N(CC(=O)N2CCCc3cc(-c4cnn(C)c4)ccc32)C1=O [Example 302, (R)-1-methyl-3-(3′-(2-(6-(1-methyl-1H-pyrazol-4-yl)-3,4-dihydroquinolin-1 (2H)-yl)-2-oxoethyl)-2′,4′-dioxo-2,3-dihydrospiro[indene-1,5′-oxazolidine]-5-yl)urea] | > 2 |
| CNC(=O)Nc1ccc2c(c1F)CC[C@@]21OC(=O)N(CC(=O)N2[C@@H](C)CC[C@H]2c2cc(F)c(F)c(F)c2)C1=O [Example 384, 1-((R)-4-fluoro-3′-(2-((2S,5S)-2-methyl-5-(3,4,5-trifluorophenyl)pyrrolidin-1-yl)-2-oxoethyl)-2′,4′-dioxo-2,3-dihydrospiro[indene-1,5′-oxazolidine]-5-yl)-3-methylurea] | > 2 |
| CNC(=O)Nc1ccc2c(c1)CC[C@@]21OC(=O)N(CC(=O)N2CCCC2c2ccc(F)cc2C)C1=O (stereo partly drawn) [Example 347, 1-((1R)-3′-(2-(2-(4-fluoro-2-methylphenyl)pyrrolidin-1-yl)-2-oxoethyl)-2′,4′-dioxo-2,3-dihydrospiro[indene-1,5′-oxazolidine]-5-yl)-3-methylurea] | 0.5 to 2 |
| CNC(=O)Nc1ccc2c(c1F)CC[C@@]21OC(=O)N(CC(=O)N2[C@@H](C)CC[C@H]2c2ccc(F)c(F)c2)C1=O [Example 383, 1-((R)-3′-(2-((2S,5S)-2-(3,4-difluorophenyl)-5-methylpyrrolidin-1-yl)-2-oxoethyl)-4-fluoro-2′,4′-dioxo-2,3-dihydrospiro[indene-1,5′-oxazolidine]-5-yl)-3-methylurea] | > 2 |
| CNC(=O)Nc1ccc2c(c1)CC[C@@]21OC(=O)N(CC(=O)N2CCC[C@H]2C#N)C1=O [Example 331, 1-((R)-3′-(2-((S)-2-cyanopyrrolidin-1-yl)-2-oxoethyl)-2′,4′-dioxo-2,3-dihydrospiro[indene-1,5-oxazolidine]-5-yl)-3-methylurea] | > 2 |
| CNC(=O)Nc1cc2c(cc1F)[C@]1(CC2)OC(=O)N(CC(=O)N2[C@@H](C)CC[C@H]2c2cc(F)c(F)c(F)c2)C1=O [Example 392] | 0.5 to 2 |
| CNC(=O)Nc1ccc2c(c1)CC[C@@]21OC(=O)N(CC(=O)N2C(C(C)(C)C)OC[C@@H]2c2ccccc2)C1=O (stereo partly shown) [Example 108] | > 2 |
| CNC(=O)Nc1ccc2c(c1)CC[C@@]21OC(=O)N(CC(=O)N2CCCC[C@@H]2c2ccccc2)C1=O [Example 2] | > 2 |
| CNC(=O)Nc1ccc2c(c1)CC[C@@]21OC(=O)N(CC(=O)N2CCCC2c2ccccc2OC)C1=O (single isomer, unassigned) [Example 338] | > 2 |
| CNC(=O)Nc1ccc2c(c1)CC[C@@]21OC(=O)N(CC(=O)N2C(C)CCC2c2ccc(F)cc2C)C1=O (stereo partly drawn) [Example 353, 1-((1R)-3′-(2-(2-(4-fluoro-2-methylphenyl)-5-methylpyrrolidin-1-yl)-2-oxoethyl)-2′,4′-dioxo-2,3-dihydrospiro[indene-1,5′-oxazolidine]-5-yl)-3-methylurea] | ≤ 0.5 |
| CNC(=O)Nc1ccc2c(c1)CC[C@@]21OC(=O)N(CC(=O)N2C(C)CCC2c2ccc(F)cc2OC)C1=O (stereo partly drawn) [Example 337, 1-((1R)-3′-(2-(2-(4-fluoro-2-methoxyphenyl)-5-methylpyrrolidin-1-yl)-2-oxoethyl)-2′,4′-dioxo-2,3-dihydrospiro[indene-1,5′-oxazolidine]-5-yl)-3-methylurea] | 0.5 to 2 |
| CNC(=O)Nc1ccc2c(c1)CC[C@@]21OC(=O)N(CC(=O)NC2C(C)(C)C(O)C2(C)C)C1=O (stereo partly drawn) [Example 105, (R)—N-(3-hydroxyl-2,2,4,4-tetramethylcyclobutyl)-2-(5-(3-Methylureido)-2′,4′-dioxo-2,3-dihydrospiro[indene-1,5′-oxazole]-3′-yl)acetamide] | > 2 |
| CNC(=O)Nc1ccc2c(c1)CC[C@@]21OC(=O)N(CC(=O)N2CCCC2c2cccc[n+]2[O-])C1=O (stereo partly drawn) [Example 343, 2-(1-(2-((R)-5-(3-methylureido)-2′,4′-dioxo-2,3-dihydrospiro[indene-1,5′-oxazole]-3′-yl)acetyl)pyrrolidin-2-yl)pyridin-1-oxide] | > 2 |
| CNC(=O)Nc1ccc2c(c1)CC[C@]21OC(=O)N(Cc2nnc(-c3ccccc3)o2)C1=O [Example 317, (S)-1-(2′,4′-dioxo-3′-((5-phenyl-1,3,4-oxadiazol-2-yl)methyl)-2,3-dihydrospiro[indene-1,5′-oxazolidine]-5-yl)-3-methylurea] | > 2 |
| CNC(=O)Nc1ccc2c(c1)CC[C@@]21OC(=O)N(CC(=O)N2[C@H](CN3CCC4(CC3)CC4(F)F)CC[C@@H]2C)C1=O [Example 379, 1-((R)-3′-(2-((2S,5S)-2-((1,1-difluoro-6-aza-spiro[2.5]octan-6-yl)methyl)-5-methylpyrrolidin-1-yl)-2-oxoethyl)-2′,4′-dioxo-2,3-dihydrospiro[indene-1,5′-oxazolidine]-5-yl)-3-methylurea] | > 2 |
| CNC(=O)Nc1ccc2c(c1)CC[C@@]21OC(=O)N(CC(=O)N2CCCC2c2cccc(C)c2)C1=O (stereo partly shown) [Example 318] | > 2 |
| CNC(=O)Nc1ccc2c(c1)CC[C@@]21OC(=O)N(CC(=O)N2C(C)CCC2c2ccc(F)c(Cl)c2)C1=O (stereo partly drawn) [Example 359, 1-((1R)-3′-(2-(2-(3-chloro-4-fluorophenyl)-5-methylpyrrolidin-1-yl)-2-oxoethyl)-2′,4′-dioxo-2,3-dihydrospiro[indene-1,5′-oxazolidine]-5-yl)-3-methylurea] | ≤ 0.5 |
| CNC(=O)Nc1ccc2c(c1)CC[C@@]21OC(=O)N(CC(=O)N2CCCC2c2cccnc2)C1=O (stereo partly drawn) [Example 334, 1-((1R)-2′,4′-dioxo-3′-(2-oxo-2-(2-(pyridin-3-yl)pyrrolidin-1-yl)ethyl)-2,3-dihydrospiro[indene-1,5′-oxazolidine]-5-yl)-3-methylurea] | > 2 |
| CNC(=O)Nc1ccc2c(c1)CC[C@@]21OC(=O)N(CC(=O)N2C(c3ccc(F)cc3)CC[C@H]2CO)C1=O (stereo partly drawn) [Example 363, 1-((1R)-3′-(2-((5S)-2-(4-fluorophenyl)-5-(hydroxymethyl)pyrrolidin-1-yl)-2-oxoethyl)-2′,4′-dioxo-2,3-dihydrospiro[indene-1,5′-oxazolidine]-5-yl)-3-methylurea] | > 2 |

same assay, conditions: Homo sapiens, CWR22Rv1, 144 h, 6 days culture, read-out: IC50 against CWR22RV1 cells (text)

| SMILES | IC50 [µM] |
| --- | --- |
| CNC(=O)Nc1ccc2c(c1)CC[C@@]21OC(=O)N(CC(=O)N2C(C)CCC2c2ccc(F)cc2C)C1=O (stereo partly drawn) [Example 353, 1-((1R)-3′-(2-(2-(4-fluoro-2-methylphenyl)-5-methylpyrrolidin-1-yl)-2-oxoethyl)-2′,4′-dioxo-2,3-dihydrospiro[indene-1,5′-oxazolidine]-5-yl)-3-methylurea] | ≤ 0.5 |
| CNC(=O)Nc1ccc2c(c1)CC[C@@]21OC(=O)N(CC(=O)N2C(C)CCC2c2ccc(F)c(Cl)c2)C1=O (stereo partly drawn) [Example 359, 1-((1R)-3′-(2-(2-(3-chloro-4-fluorophenyl)-5-methylpyrrolidin-1-yl)-2-oxoethyl)-2′,4′-dioxo-2,3-dihydrospiro[indene-1,5′-oxazolidine]-5-yl)-3-methylurea] | ≤ 0.5 |
